The values below come from patent US11807693B2 (priority 2014, dated 2023).

Starred links: 1 amine or outer side, 2 acyl side, 3 side chain; linkers in the order of their positions; H or OH if unused. Non-standard residues stand in square brackets, D forms with d. Residues, ends and D or L forms follow the SMILES beside them. *: point of attachment. Oic = O=C(O)[C@@H]1C[C@@H]2CCCC[C@@H]2N1; Phe(4-Cl) = N[C@@H](Cc1ccc(Cl)cc1)C(=O)O; γGlu = O=C(O)[C@H](CCC(=O)[*:2])N[*:1]; NMeR = CN[C@@H](CCCNC(=N)N)C(=O)O; Tridecanoyl = CCCCCCCCCCCCC(=O)*; hArg = N=C(N)NCCCC[C@H](N)C(=O)O; Cha = N[C@@H](CC1CCCCC1)C(=O)O; Gly(N-CH2CH2OH) = O=C(O)CNCCO; αMeP = C[C@@]1(C(=O)O)CCCN1; β3hV = CC(C)[C@H](N)CC(=O)O; β3hP = O=C(O)C[C@@H]1CCCN1; Pip = O=C(O)[C@@H]1CCCCN1; Nle = CCCC[C@H](N)C(=O)O; AEEA = NCCOCCOCC(=O)O; Aib = CC(C)(N)C(=O)O Where only a bound is given, the exact number is not on record here.

Holding throughout (type): in vitro ADME
A short description of data set [1]: In vitro stability in rat liver homogenate. As to conditions: tissue homogenate. Put shortly:
(§1)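 Stability was followed for 4 hr at 37° C. after spiking peptides (5 μM final) into rat plasma and tissue homogenates. Methanol quench with internal standard preceded high resolution LC-MS.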

A short description of data set [2]: In vitro stability in rat plasma. Put shortly:
as §1

Data set [3] is described as follows: In vitro stability in rat kidney homogenate. As to conditions: rat, tissue homogenate. As to the method:
Apelin peptides were spiked into rat plasma, liver homogenate, and kidney homogenate, which were obtained from commercial sources, to a final concentration of 5 μM. The samples were then incubated at 37° C. over a period of 4 hr. […] In a typical experiment, an aliquot of 100 μL of sample was taken from the incubation vial, followed by addition of 300 μL of MeOH containing internal standard. The quenched sample was centrifuged at 5500 g for 15 min after 15 min vortex in room temperature. The supernatant was then analyzed by high resolution LC-MS. […] In vitro plasma, […], and kidney stability results are shown below in Table 14.

Consider `CCCCCCCCCCCCC(=O)N[C@@H](CCC(=O)NCCOCCOCC(=O)NCCOCCOCC(=O)N[C@@H](CCC(N)=O)C(=O)N[C@@H](CCCNC(=N)N)C(=O)N1CCC[C@H]1C(=O)N(C)[C@@H](CCCNC(=N)N)C(=O)N[C@@H](CC1CCCCC1)C(=O)N[C@@H](CO)C(=O)N[C@@H](Cc1c[nH]cn1)C(=O)N[C@@H](CCCCN)C(=O)NCC(=O)N1[C@H](C(=O)N[C@@H](CCCC)C(=O)N2CCC[C@@]2(C)C(=O)N[C@@H](Cc2ccc(Cl)cc2)C(=O)O)C[C@@H]2CCCC[C@@H]21)C(=O)O` [compound 412] ({Tridecanoyl-γGlu-AEEA-AEEA}-QRP[NMeR][Cha]SHKG[Oic][Nle][αMeP][Phe(4-Cl)]-OH), for which the share remaining at 4 h, 5 μM in data set [1] amounted to 76%; in data set [2], 77%; in data set [3], 3%.
Taken in the same sequence, the figures for `CCCCCCCCCCCCC(=O)N[C@@H](CCC(=O)NCCOCCOCC(=O)NCCOCCOCC(=O)N[C@@H](CCC(N)=O)C(=O)N[C@@H](CCCNC(=N)N)C(=O)N1CCC[C@H]1C(=O)N(C)[C@@H](CCCNC(=N)N)C(=O)N[C@@H](CC(C)C)C(=O)N(CCO)CC(=O)N[C@@H](Cc1c[nH]cn1)C(=O)N[C@@H](CCCCN)C(=O)NCC(=O)N1CCC[C@H]1C(=O)N[C@@H](CCCC)C(=O)N1CCC[C@H]1C(=O)N[C@@H](Cc1ccc(Cl)cc1)C(=O)O)C(=O)O` [compound 467] ({Tridecanoyl-γGlu-AEEA-AEEA}-QRP[NMeR]L[Gly(N-CH2CH2OH)]HKGP[Nle]P[Phe(4-Cl)]-OH) were 87%, 27% and 83%.
Taken in the same sequence, the figures for `CCCCCCCCCCCCC(=O)N[C@@H](CCC(=O)NCCOCCOCC(=O)NCCOCCOCC(=O)N[C@@H](CCCCNC(=N)N)C(=O)N[C@@H](CCC(N)=O)C(=O)N[C@@H](CCCCNC(=N)N)C(=O)N1CCC[C@H]1C(=O)N[C@@H](CCCCNC(=N)N)C(=O)N[C@@H](CC1CCCCC1)C(=O)N[C@@H](CO)C(=O)N[C@@H](Cc1c[nH]cn1)C(=O)N[C@@H](CCCCN)C(=O)NCC(=O)N1[C@H](C(=O)N[C@@H](CCCC)C(=O)N2CCC[C@H]2C(=O)N[C@@H](Cc2ccc(Cl)cc2)C(=O)O)C[C@@H]2CCCC[C@@H]21)C(=O)O` [compound 490] ({Tridecanoyl-γGlu-AEEA-AEEA}-[hArg]Q[hArg]P[hArg][Cha]SHKG[Oic][Nle]P[Phe(4-Cl)]-OH) were 9%, 88% and less than 1%.
Taken in the same sequence, the figures for `CCCCCCCCCCCCCCCCC(=O)N[C@@H](CCC(=O)NCCOCCOCC(=O)NCCOCCOCC(=O)N[C@@H](CCC(N)=O)C(=O)N[C@@H](CCCNC(=N)N)C(=O)N1CCC[C@H]1C(=O)N(C)[C@@H](CCCNC(=N)N)C(=O)N[C@@H](CC(C)C)C(=O)N[C@@H](CO)C(=O)N[C@@H](Cc1c[nH]cn1)C(=O)N[C@@H](CCCCN)C(=O)NCC(=O)N1CCC[C@H]1C(=O)N[C@@H](CCCC)C(=O)N1CCC[C@H]1C(=O)N[C@@H](Cc1ccc(Cl)cc1)C(=O)O)C(=O)O` [compound 496] were 3%, 86% and less than 1%.
As for `CCCCCCCCCCCCC(=O)N[C@@H](CCC(=O)NCCOCCOCC(=O)NCCOCCOCC(=O)N[C@H](CCC(N)=O)C(=O)N[C@@H](CCCNC(=N)N)C(=O)N1CCC[C@H]1C(=O)N(C)[C@@H](CCCNC(=N)N)C(=O)N[C@@H](CC1CCCCC1)C(=O)N[C@@H](CO)C(=O)N[C@@H](Cc1c[nH]cn1)C(=O)N[C@@H](CCCCN)C(=O)NCC(=O)N1CCC[C@@]1(C)C(=O)N[C@@H](CCCC)C(=O)NC(C)(C)C(=O)N[C@@H](Cc1ccc(Cl)cc1)C(=O)O)C(=O)O` [compound 498] ({Tridecanoyl-γGlu-AEEA-AEEA}-[dQ]RP[NMeR][Cha]SHKG[αMeP][Nle][Aib][Phe(4-Cl)]-OH), the amount remaining at 4 h, 5 μM in data set [1] was more than 90%; in data set [2], more than 90%; in data set [3] it was 23%.
Regarding `CCCCCCCCCCCCC(=O)N[C@@H](CCC(=O)NCCOCCOCC(=O)NCCOCCOCC(=O)N[C@H](CCC(N)=O)C(=O)N[C@@H](CCCNC(=N)N)C(=O)N1CCC[C@@]1(C)C(=O)N[C@@H](CCCCNC(=N)N)C(=O)N[C@H](CC(=O)N[C@@H](CO)C(=O)N[C@@H](Cc1c[nH]cn1)C(=O)N[C@@H](CCCCN)C(=O)NCC(=O)N1[C@H](C(=O)N[C@@H](CCCC)C(=O)N2CCC[C@@]2(C)C(=O)N[C@@H](Cc2ccc(Cl)cc2)C(=O)O)C[C@@H]2CCCC[C@@H]21)C(C)C)C(=O)O` [compound 502] ({Tridecanoyl-γGlu-AEEA-AEEA}-[dQ]R[αMeP][hArg][β3hV]SHKG[Oic][Nle][αMeP][Phe(4-Cl)]-OH), the fraction remaining at 4 h, 5 μM in data set [1] was 34%; in data set [2], more than 90%; in data set [3], 19%.
Regarding `CCCCCCCCCCCCC(=O)N[C@@H](CCC(=O)NCCOCCOCC(=O)NCCOCCOCC(=O)N[C@H](CCC(N)=O)C(=O)N[C@@H](CCCNC(=N)N)C(=O)N1CCC[C@@]1(C)C(=O)N[C@@H](CCCCNC(=N)N)C(=O)N[C@H](CC(=O)N[C@@H](CO)C(=O)N[C@@H](Cc1c[nH]cn1)C(=O)N[C@@H](CCCCN)C(=O)NCC(=O)N1CCCC[C@H]1C(=O)N[C@@H](CCCC)C(=O)N1CCC[C@@]1(C)C(=O)N[C@@H](Cc1ccc(Cl)cc1)C(=O)O)C(C)C)C(=O)O` [compound 503] ({Tridecanoyl-γGlu-AEEA-AEEA}-[dQ]R[αMeP][hArg][β3hV]SHKG[Pip][Nle][αMeP][Phe(4-Cl)]-OH), the share remaining at 4 h, 5 μM in data set [1] came to 7%; in data set [2], 85%; in data set [3], 2%.
On the same counts, the results for `CCCCCCCCCCCCC(=O)N[C@@H](CCC(=O)NCCOCCOCC(=O)NCCOCCOCC(=O)N[C@H](CCC(N)=O)C(=O)N[C@@H](CCCNC(=N)N)C(=O)N1CCCC1(C)C(=O)N[C@@H](CCCCNC(=N)N)C(=O)NC(CC(=O)N[C@@H](CO)C(=O)N[C@@H](Cc1c[nH]cn1)C(=O)N[C@@H](CCCCN)C(=O)NCC(=O)N1CCCC1(C)C(=O)N[C@@H](CCCC)C(=O)N1CCCC1(C)C(=O)N[C@@H](Cc1ccc(Cl)cc1)C(=O)O)C(C)C)C(=O)O` (stereo partly drawn) [compound 504] are 11%, more than 90% and 4%.
With `CCCCCCCCCCCCC(=O)N[C@@H](CCC(=O)NCCOCCOCC(=O)NCCOCCOCC(=O)N[C@H](CCC(N)=O)C(=O)N[C@@H](CCCNC(=N)N)C(=O)N1CCCC[C@H]1C(=O)N(C)[C@@H](CCCNC(=N)N)C(=O)N[C@@H](CC1CCCCC1)C(=O)N[C@@H](CO)C(=O)N[C@@H](Cc1c[nH]cn1)C(=O)N[C@@H](CCCCN)C(=O)NCC(=O)N1[C@H](C(=O)N[C@@H](CCCC)C(=O)NC(C)(C)C(=O)N[C@@H](Cc2ccc(Cl)cc2)C(=O)O)C[C@@H]2CCCC[C@@H]21)C(=O)O` [compound 517] ({Tridecanoyl-γGlu-AEEA-AEEA}-[dQ]R[Pip][NMeR][Cha]SHKG[Oic][Nle][Aib][Phe(4-Cl)]-OH), the amount remaining at 4 h, 5 μM in data set [1] was 19%; in data set [2], more than 90%; in data set [3] it was less than 1%.
On the same counts, the results for `CCCCCCCCCCCCC(=O)N[C@@H](CCC(=O)N[C@@H](CCC(=O)NCCOCCOCC(=O)N[C@H](CCC(N)=O)C(=O)N[C@@H](CCCNC(=N)N)C(=O)N1CCC[C@H]1C(=O)N(C)[C@@H](CCCNC(=N)N)C(=O)N[C@@H](CC1CCCCC1)C(=O)N[C@@H](CO)C(=O)N[C@@H](Cc1c[nH]cn1)C(=O)N[C@@H](CCCCN)C(=O)NCC(=O)N1[C@H](C(=O)N[C@@H](CCCC)C(=O)NC(C)(C)C(=O)N[C@@H](Cc2ccc(Cl)cc2)C(=O)O)C[C@@H]2CCCC[C@@H]21)C(=O)O)C(=O)O` [compound 535] ({Tridecanoyl-γGlu-γGlu-AEEA}-[dQ]RP[NMeR][Cha]SHKG[Oic][Nle][Aib][Phe(4-Cl)]-OH) are 3%, 89% and less than 1%.
`CCCCCCCCCCCCC(=O)N[C@H](CC(=O)O)C(=O)NCCOCCOCC(=O)NCCOCCOCC(=O)N[C@H](CCC(N)=O)C(=O)N[C@@H](CCCNC(=N)N)C(=O)N1CCC[C@H]1C(=O)N(C)[C@@H](CCCNC(=N)N)C(=O)N[C@@H](CC1CCCCC1)C(=O)N[C@@H](CO)C(=O)N[C@@H](Cc1c[nH]cn1)C(=O)N[C@@H](CCCCN)C(=O)NCC(=O)N1[C@H](C(=O)N[C@@H](CCCC)C(=O)NC(C)(C)C(=O)N[C@@H](Cc2ccc(Cl)cc2)C(=O)O)C[C@@H]2CCCC[C@@H]21` [compound 538] (Tridecanoyl-[dD][AEEA][AEEA][dQ]RP[NMeR][Cha]SHKG[Oic][Nle][Aib][Phe(4-Cl)]-OH): the fraction remaining at 4 h, 5 μM is 2% in data set [1], 73% in data set [2] and less than 1% in data set [3].
On the same counts, the results for `CCCCCCCCCCCCC(=O)N[C@@H](CCC(=O)NCCOCCOCC(=O)NCCOCCOCC(=O)N[C@@H](CCC(N)=O)C(=O)N1CCC[C@H]1CC(=O)N(C)[C@@H](CCCNC(=N)N)C(=O)N[C@@H](CC1CCCCC1)C(=O)N[C@@H](CO)C(=O)N[C@@H](Cc1c[nH]cn1)C(=O)N[C@@H](CCCCN)C(=O)NCC(=O)N1[C@H](C(=O)N[C@@H](CCCC)C(=O)NC(C)(C)C(=O)N[C@@H](Cc2ccc(Cl)cc2)C(=O)O)C[C@@H]2CCCC[C@@H]21)C(=O)O` [compound 550] ({Tridecanoyl-γGlu-AEEA-AEEA}-Q[β3hP][NMeR][Cha]SHKG[Oic][Nle][Aib][Phe(4-Cl)]-OH) are 2%, more than 90% and less than 1%.

The share remaining is the share of the starting amount still present when the sample was taken. A low value points to a greater loss.
